Source: US9580399B2, “Geranyl flavonoid derivative with improved water solubility, a method for preparing the same, and a method for treating cancer using the same” (KOREA RESEARCH INSTITUTE OF BIOSCIENCE AND BIOTECHNOLOGY, priority 2014, dated 2017)
In brackets after ≈: the same amount, converted by molar mass.

Assays:
[1] = Physicochemical properties: solubility; settings: for Solubility: Insolubility: solvents in which insoluble; for Solubility: Fusibility: solvents in which soluble
MDA-MB-468 = assay: Cancer cell growth inhibition (WST-1); format: cell-based; settings: Homo sapiens, Breast cancer, 24 hours
Description: (§1) To investigate whether or not the geranyl flavonoid derivative of the present invention had cancer cell growth inhibiting effect, various human cancer cell lines were treated with CG-901-2 and then cancer cell growth was observed. Particularly, the human breast cancer cell lines MDA-MB-231 and MDA-MB-468, the prostate cancer cell line DU-145, the colorectal cancer cell line HCT116, the pancreatic cancer cell line AsPC-3, or the colon cancer cell line SW620 was distributed in 10% FBS medium, followed by culture in a 37° C. 5% CO2 incubator. The attached grown cells were collected by using trypsin-EDTA. The obtained cells were counted by hematocytometer, which were distributed in 96-well plate at the density of 5,000 cells/well (MDA-MB-231, MDA-MB-468, and DU-145) or at the density of 7,000 cells/well (HCT116 and SW620). 10% FBS medium was added to the plate, followed by culture in a 37° C. 5% CO2 incubator. 24 hours later, the cells were treated with the compound CG-901-2 prepared in Example <1-2> dissolved in DMSO at the concentration of 20 or 50 μg/ml. The negative control was treated with 0.1% DMSO. The cells were further cultured for 24 more hours. Then, 10 μl of the coloring agent, 2-[4-iodophenyl]-3-[4-nitrophenyl]-5-[2,4-disulfophenyl]-2H-tetrazolium (monosodium salt, WST-1; Roche) was treated to the cultured cells, followed by culture for 2 hours. Then, OD450 was measured with ELISA reader (Bio-Rad) to investigate the time-dependent cancer cell growth rate. For 24 hours from the treatment of the compound, the concentration of the compound that allowed only 50% of cancer cell population to survive was calculated based on the above growth rate, and the result was defined as GI50.

HCT116 = assay: Cancer cell growth inhibition (WST-1); format: cell-based; settings: Homo sapiens, HCT-116; Colorectal cancer, 24 hours
Description: as §1

[2] = Cancer cell growth inhibition (WST-1); format: cell-based; settings: Homo sapiens; Prostate cancer, 24 hours
Description: as §1

SW620 = assay: Cancer cell growth inhibition (WST-1); format: cell-based; settings: Homo sapiens, SW-620; Colon cancer, 24 hours
Description: as §1

DU-145 tumor = assay: In vivo tumor growth inhibition in prostate cancer mouse model; settings: 50 mg/kg oral, once a day, 10 times, compared with negative control
Description: Particularly, the human originated prostate cancer cell line DU-145 was inoculated in the serum-free medium, followed by culture in a 37° C. 5% CO2 incubator. The cultured DU-145 cells were prepared at the density of 3×10^7 cells/ml. Each BALB/c specific pathogen free female mouse (Nara Biotech Co.) at 6 weeks was administered with the cells at the dose of 9×10^6 cells/0.3 ml via subcutaneous injection in the auxiliary region between the right shoulder and breast wall, leading to the cancer cell transplantation. After the transplantation, the mouse was raised for 25 days until the generated tumor induced by the transplanted cancer cells grew to a measurable size. As a result, the prostate cancer mouse model was constructed. The tumor induced by the transplanted cancer cells was measured in three dimensions which were length, width, and height of the tumor, by using a vernier caliper, […], and the size of the tumor was calculated by the below mathematical formula 1. […] The tumor size was measured on day 0, day 10, day 14, day 16, day 18, day 21, day 23, and day 25. […] The size and weight of the control tumor was measured and compared with the above.

[3] = tested on: various human cancer cell lines; assay: Cancer cell growth inhibition (WST-1), all cell lines together; format: cell-based
Description: as §1, with “Then, 10 μl of the coloring agent, 2-[4-iodophenyl]-3-[4-nitrophenyl]-5-[2,4-disulfophenyl]-2H-tetrazolium (monosodium salt, WST-1; Roche) was treated to the cultured cells, followed by culture for 2 hours.” left out, “For 24 hours from the treatment of the compound, the concentration of the compound that allowed only 50% of cancer cell population to survive was calculated based on the above growth rate, and the result was defined as GI50.” left out

STAT3 = molecular target: T1, STAT3 (Homo sapiens, UniProt P40763); assay: Western blotting of STAT3 expression and phosphorylation in DU-145 cells; format: cell-based; settings: DU-145, 5, 10 or 20 μM, 24 hours
T1 construct: the prostate cancer cell line DU-145 was distributed in three 60-mm plates; endogenous in cells; host or cells: DU-145 prostate cancer cells
T1 sequence (P40763 whole entry): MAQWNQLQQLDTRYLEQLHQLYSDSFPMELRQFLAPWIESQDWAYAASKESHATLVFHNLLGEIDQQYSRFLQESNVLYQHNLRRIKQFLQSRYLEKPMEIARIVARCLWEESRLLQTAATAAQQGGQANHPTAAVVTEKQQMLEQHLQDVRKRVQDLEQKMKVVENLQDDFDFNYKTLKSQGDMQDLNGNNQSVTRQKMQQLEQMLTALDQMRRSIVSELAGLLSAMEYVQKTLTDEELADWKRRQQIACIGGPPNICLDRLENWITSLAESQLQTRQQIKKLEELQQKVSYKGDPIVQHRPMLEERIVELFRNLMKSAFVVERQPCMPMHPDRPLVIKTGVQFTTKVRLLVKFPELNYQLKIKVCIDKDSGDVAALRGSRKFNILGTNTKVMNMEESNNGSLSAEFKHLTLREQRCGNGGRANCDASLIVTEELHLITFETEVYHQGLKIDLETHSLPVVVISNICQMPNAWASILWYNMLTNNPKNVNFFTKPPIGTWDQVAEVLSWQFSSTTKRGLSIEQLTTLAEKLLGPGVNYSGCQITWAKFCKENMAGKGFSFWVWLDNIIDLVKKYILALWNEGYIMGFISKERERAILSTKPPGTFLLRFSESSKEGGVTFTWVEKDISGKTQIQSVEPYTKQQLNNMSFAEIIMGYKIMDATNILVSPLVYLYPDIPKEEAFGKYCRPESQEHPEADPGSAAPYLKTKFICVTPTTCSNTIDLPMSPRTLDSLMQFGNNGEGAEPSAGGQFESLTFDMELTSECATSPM
Description: To investigate whether or not the novel synthesized geranyl flavonoid derivative of the present invention, CG-901-2, had the activity of inhibiting STAT3 protein activity by inhibiting STAT3 phosphorylation, Western blotting was performed to measure the expression of the phosphorylated STAT3. Particularly, the prostate cancer cell line DU-145 was distributed in three 60-mm plates containing 10% FBS (fetal bovine serum) medium at the density of 80,000 cells/plate, followed by culture in a 37° C. 5% CO2 incubator for 24 hours. Upon completion of the culture, the CG-901-2 compound prepared in Example <1-2> was treated to each plate at the concentration of 5, 10, or 20 μM. The negative control was treated with 0.25% DMSO, followed by culture for 24 hours. Then, the medium was discarded from each plate. The plate was then washed with PBS, to which 200 μl of Ripa lysis buffer was added. The cells attached on the plate were collected by using a scraper. […] The lysate mixture was placed in a 96-well plate, and […] was measured using ELISA reader in order to quantify the protein. After the quantification, the lysate containing the equal amount of protein was prepared, which was mixed with lysis buffer and 5× dye, leading to the preparation of a loading sample. […]

cyclin A = assay: Western blotting of STAT3 target protein expression in DU-145 cells; format: cell-based, human; settings: DU-145, 20 μM
Description: (§2) To investigate the changes of the expression of STAT3 target genes according to the decrease of STAT3 protein phosphorylation caused by the treatment of geranyl flavonoid derivative CG901-2, the expressions of cyclin A that is well known as a STAT3 target protein, Mcl-1 (Induced myeloid leukemia cell differentiation protein-1), and survivin were examined. Particularly, DU-145 cells were treated with the compound CG-901-2 at the concentration of 20 μM by the same manner as described in Example <2-1>, followed by culture. Western blotting was performed to investigate the expressions of AD (cyclin A), Mcl-1, and survivin. β-actin was used as the control to compare the expression levels.

Mcl-1 = assay: as above; format: cell-based, human; settings: DU-145, 20 μM
Description: as §2

survivin = assay: as above; format: cell-based, human; settings: DU-145, 20 μM
Description: as §2

Solubility: Insolubility [1] | Solubility: Fusibility [1] | solubility ([1]; water) [µM] | GI50 (MDA-MB-468) [µM] | GI50 (HCT116) [µM] | GI50 [2] [µM] | GI50 (SW620) [µM] | GI50 ([3]; Homo sapiens, MDA-MB-231, MDA-MB-468, DU-145, HCT116, AsPC-3, SW620, read-out: GI50 concentration range of each cancer cell line) [µM] | expression of STAT3 (STAT3) | phosphorylation of STAT3 (STAT3) | SMILES | tumor size growth inhibited (DU-145 tumor) | weight of the tumor reduced (DU-145 tumor; day 25) [%] | cancer cell growth rate ([3]; compared with negative control) | expression of cyclin A (cyclin A) | expression of Mcl-1 (Mcl-1) | expression of survivin (survivin)
Hexane | Alcohol, DMSO | 300 (≈ 144 µg/mL) | – | – | – | – | – | – | – | CC(C)=CCC[C@]1(C)C=Cc2c(CCC(=O)c3ccc(OCCN(C)C)cc3O)ccc(O)c2O1 [CG-901-1, (R)-1-(4-(2-(dimethylamino)ethoxy)-2-hydroxyphenyl)-3-(8-hydroxy-2-methyl-2-(4-methylpent-3-enyl)-2H-chromen-5-yl)propan-1-one] | – | – | – | – | – | –
Hexane, Ethylacetate | Alcohol, H2O | – | 30 | 25 | 20 | 50 | 15 to 30 | not changed | reduced CG-901-2 dose-dependently | CC(C)=CCC[C@]1(C)C=Cc2c(CCC(=O)c3ccc(OCCN(C)C)cc3O)ccc(O)c2O1.Cl [CG-901-2, (R)-2-(3-hydroxy-4-(3-(8-hydroxy-2-methyl-2-(4-methylpent-3-enyl)-2H-chromen-5-yl)propanoyl)phenoxy)-N,N-dimethylethanaminium chloride] | approximately 38.8% | 40.5 | reduced over the time | down-regulated | down-regulated | down-regulated
